Where two headings read alike, the source gives them in different places.
What was measured:
activated human C1 = target: T1, activated human C1 (Homo sapiens, UniProt P09871); experiment: Test Code 026 (C1 inhibitor); assay type: biochemical; conditions: serial twofold dilution assay; higher well number indicates higher activity
T1 sequence (P09871 16-437 limits assumed): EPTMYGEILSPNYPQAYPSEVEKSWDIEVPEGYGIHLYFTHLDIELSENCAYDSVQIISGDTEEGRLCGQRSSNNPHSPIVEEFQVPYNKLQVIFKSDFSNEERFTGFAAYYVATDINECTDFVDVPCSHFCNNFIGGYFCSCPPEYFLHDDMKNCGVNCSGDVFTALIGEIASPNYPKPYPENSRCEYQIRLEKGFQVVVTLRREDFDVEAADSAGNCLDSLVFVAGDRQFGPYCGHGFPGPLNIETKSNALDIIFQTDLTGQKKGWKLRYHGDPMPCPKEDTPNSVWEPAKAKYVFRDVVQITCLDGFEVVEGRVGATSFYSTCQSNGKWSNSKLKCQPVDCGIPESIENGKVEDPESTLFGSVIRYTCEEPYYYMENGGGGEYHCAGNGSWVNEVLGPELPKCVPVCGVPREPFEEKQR
T1 sequence (P09871 438-688 limits assumed): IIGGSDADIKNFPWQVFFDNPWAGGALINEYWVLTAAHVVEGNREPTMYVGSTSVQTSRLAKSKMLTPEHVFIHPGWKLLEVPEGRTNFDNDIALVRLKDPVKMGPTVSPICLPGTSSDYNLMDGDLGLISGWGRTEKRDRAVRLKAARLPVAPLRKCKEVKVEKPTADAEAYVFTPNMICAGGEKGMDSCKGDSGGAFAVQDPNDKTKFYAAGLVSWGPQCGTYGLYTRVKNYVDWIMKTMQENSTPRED

[1] = test system: late components of human complement (C3-C9); experiment: Test Code 035 (C3-C9 inhibitor), lysis of EAC 142; assay type: biochemical; conditions: serial twofold dilution assay; higher well number indicates higher activity
[2] = test system: complement activity of sera; experiment: Guinea Pig Intraperitoneal Test (GPIP); assay type: in vivo; conditions: Cavia porcellus, ip, 200 mg/kg i.p., capillary complement assay
Description: Percent inhibition is calculated by comparison with simultaneous controls.

[3] = blood 2 hours after injection, read-out: in vivo Activity Guinea Pig % Inhibition Intraperitoneal, 2 hours
[4] = blood 6 hours after injection, read-out: in vivo Activity Guinea Pig % Inhibition Intraperitoneal, 6 hours
[5] = blood 24 hours after injection, read-out: in vivo Activity Guinea Pig % Inhibition Intraperitoneal, 24 hours

Row | SMILES | in vitro Activity Cl 026 Wells (activated human C1) [Wells] | in vitro Activity C-Late 035 Wells [1] [Wells] | inhibition at 200 mg/kg [2, 3] [%] | inhibition at 200 mg/kg [2, 4] [%] | inhibition at 200 mg/kg [2, 5] [%]
1 | O=C(CCC(=O)Nc1ccc(S[C@@H]2O[C@H](COS(=O)(=O)O)[C@@H](O[C@H]3O[C@H](COS(=O)(=O)O)[C@@H](OS(=O)(=O)O)[C@H](OS(=O)(=O)O)[C@H]3OS(=O)(=O)O)[C@H](OS(=O)(=O)O)[C@H]2OS(=O)(=O)O)cc1)Nc1ccc(S[C@@H]2O[C@H](COS(=O)(=O)O)[C@@H](O[C@H]3O[C@H](COS(=O)(=O)O)[C@@H](OS(=O)(=O)O)[C@H](OS(=O)(=O)O)[C@H]3OS(=O)(=O)O)[C@H](OS(=O)(=O)O)[C@H]2OS(=O)(=O)O)cc1 [Tetradecasodium N,N'--bis[4-[2,3,6-tri-O--sulfo-4-O--(2,3,4,6-tetra-O--sulfo-α-D-glucopyranosyl)-β -D-glucopyranosylthio]phenyl]butanediamide] | 10.2 | 1.4 |  |  | 
2 | O=C(CCCCCCC(=O)Nc1ccc(S[C@@H]2O[C@H](COS(=O)(=O)O)[C@@H](O[C@H]3O[C@H](COS(=O)(=O)O)[C@@H](OS(=O)(=O)O)[C@H](OS(=O)(=O)O)[C@H]3OS(=O)(=O)O)[C@H](OS(=O)(=O)O)[C@H]2OS(=O)(=O)O)cc1)Nc1ccc(S[C@@H]2O[C@H](COS(=O)(=O)O)[C@@H](O[C@H]3O[C@H](COS(=O)(=O)O)[C@@H](OS(=O)(=O)O)[C@H](OS(=O)(=O)O)[C@H]3OS(=O)(=O)O)[C@H](OS(=O)(=O)O)[C@H]2OS(=O)(=O)O)cc1.[Na].[Na].[Na].[Na].[Na].[Na].[Na].[Na].[Na].[Na].[Na].[Na].[Na].[Na] [Tetradecasodium N,N'-bis[4-[2,3,6-tri-O-sulfo-4-O-(2,3,4,6-tetra-O-sulfo-α-D-glucopyranosyl)-β-D-glucopyranosylthio]phenyl]octanediamide] | 9 | 1.5 | 87 | 71 | 44
3 | O=C(CCCCCCCCC(=O)Nc1ccc(S[C@@H]2O[C@H](COS(=O)(=O)O)[C@@H](O[C@H]3O[C@H](COS(=O)(=O)O)[C@@H](OS(=O)(=O)O)[C@H](OS(=O)(=O)O)[C@H]3OS(=O)(=O)O)[C@H](OS(=O)(=O)O)[C@H]2OS(=O)(=O)O)cc1)Nc1ccc(S[C@@H]2O[C@H](COS(=O)(=O)O)[C@@H](O[C@H]3O[C@H](COS(=O)(=O)O)[C@@H](OS(=O)(=O)O)[C@H](OS(=O)(=O)O)[C@H]3OS(=O)(=O)O)[C@H](OS(=O)(=O)O)[C@H]2OS(=O)(=O)O)cc1.[Na].[Na].[Na].[Na].[Na].[Na].[Na].[Na].[Na].[Na].[Na].[Na].[Na].[Na] [tetradecasodium N,N'-bis[4-[2,3,6-tri-O-sulfo-4-O-(2,3,4,6-tetra-O-sulfo-α-D-glucopyranosyl)-β-D-glucopyranosylthio]phenyl]decanediamide] | 5.0 | 0.8 | 88 | 87 | 75
4 | O=C(Nc1ccc(S[C@@H]2O[C@H](COS(=O)(=O)O)[C@@H](O[C@H]3O[C@H](COS(=O)(=O)O)[C@@H](OS(=O)(=O)O)[C@H](OS(=O)(=O)O)[C@H]3OS(=O)(=O)O)[C@H](OS(=O)(=O)O)[C@H]2OS(=O)(=O)O)cc1)C(=O)Nc1ccc(S[C@@H]2O[C@H](COS(=O)(=O)O)[C@@H](O[C@H]3O[C@H](COS(=O)(=O)O)[C@@H](OS(=O)(=O)O)[C@H](OS(=O)(=O)O)[C@H]3OS(=O)(=O)O)[C@H](OS(=O)(=O)O)[C@H]2OS(=O)(=O)O)cc1.[Na].[Na].[Na].[Na].[Na].[Na].[Na].[Na].[Na].[Na].[Na].[Na].[Na].[Na] [tetradecasodium N,N'-bis[4-[2,3,6-tri-O-sulfo-4-O-(2,3,4,6-tetra-O-sulfo-α-D-glucopyranosyl)-β-D-glucopyranosylthio]phenyl]ethanediamide] | 9.5 | 1.2 | 90 | 90 | 80
5 | O=C(CCCCCC(=O)Nc1ccc(S[C@@H]2O[C@H](COS(=O)(=O)O)[C@@H](O[C@H]3O[C@H](COS(=O)(=O)O)[C@@H](OS(=O)(=O)O)[C@H](OS(=O)(=O)O)[C@H]3OS(=O)(=O)O)[C@H](OS(=O)(=O)O)[C@H]2OS(=O)(=O)O)cc1)Nc1ccc(S[C@@H]2O[C@H](COS(=O)(=O)O)[C@@H](O[C@H]3O[C@H](COS(=O)(=O)O)[C@@H](OS(=O)(=O)O)[C@H](OS(=O)(=O)O)[C@H]3OS(=O)(=O)O)[C@H](OS(=O)(=O)O)[C@H]2OS(=O)(=O)O)cc1.[Na].[Na].[Na].[Na].[Na].[Na].[Na].[Na].[Na].[Na].[Na].[Na].[Na].[Na] [tetradecasodium N,N'-bis[4-[2,3,6-tri-O-sulfo-4-O-(2,3,4,6-tetra-O-sulfo-α-D-glucopyranosyl)-β-D-glucopyranosylthio]phenyl]heptanediamide] | 10.7 | 1.0 | 87 | 87 | 50
6 | O=C(CCCCC(=O)Nc1ccc(S[C@@H]2O[C@H](COS(=O)(=O)O)[C@@H](O[C@H]3O[C@H](COS(=O)(=O)O)[C@@H](OS(=O)(=O)O)[C@H](OS(=O)(=O)O)[C@H]3OS(=O)(=O)O)[C@H](OS(=O)(=O)O)[C@H]2OS(=O)(=O)O)cc1)Nc1ccc(S[C@@H]2O[C@H](COS(=O)(=O)O)[C@@H](O[C@H]3O[C@H](COS(=O)(=O)O)[C@@H](OS(=O)(=O)O)[C@H](OS(=O)(=O)O)[C@H]3OS(=O)(=O)O)[C@H](OS(=O)(=O)O)[C@H]2OS(=O)(=O)O)cc1.[Na].[Na].[Na].[Na].[Na].[Na].[Na].[Na].[Na].[Na].[Na].[Na].[Na].[Na] [tetradecasodium N,N'-bis[4-[2,3,6-tri-O-sulfo-4-O-(2,3,4,6-tetra-O-sulfo-α-D-glucopyranosyl)-β-D-glucopyranosylthio]phenyl]hexanediamide] | 10.5 | 1.0 | 90 | 85 | 76
7 | O=C(CCCC(=O)Nc1ccc(S[C@@H]2O[C@H](COS(=O)(=O)O)[C@@H](O[C@H]3O[C@H](COS(=O)(=O)O)[C@@H](OS(=O)(=O)O)[C@H](OS(=O)(=O)O)[C@H]3OS(=O)(=O)O)[C@H](OS(=O)(=O)O)[C@H]2OS(=O)(=O)O)cc1)Nc1ccc(S[C@@H]2O[C@H](COS(=O)(=O)O)[C@@H](O[C@H]3O[C@H](COS(=O)(=O)O)[C@@H](OS(=O)(=O)O)[C@H](OS(=O)(=O)O)[C@H]3OS(=O)(=O)O)[C@H](OS(=O)(=O)O)[C@H]2OS(=O)(=O)O)cc1.[Na].[Na].[Na].[Na].[Na].[Na].[Na].[Na].[Na].[Na].[Na].[Na].[Na].[Na] [tetradecasodium N,N'-bis[4-[2,3,6-tri-O-sulfo-4-O-(2,3,4,6-tetra-O-sulfo-α-D-glucopyranosyl)-β-D-glucopyranosylthio]phenyl]pentanediamide] | 9.9 | 1.5 | 90 | 88 | 44
8 | O=C(CCCCCCCCCCCCC(=O)Nc1ccc(S[C@@H]2O[C@H](COS(=O)(=O)O)[C@@H](O[C@H]3O[C@H](COS(=O)(=O)O)[C@@H](OS(=O)(=O)O)[C@H](OS(=O)(=O)O)[C@H]3OS(=O)(=O)O)[C@H](OS(=O)(=O)O)[C@H]2OS(=O)(=O)O)cc1)Nc1ccc(S[C@@H]2O[C@H](COS(=O)(=O)O)[C@@H](O[C@H]3O[C@H](COS(=O)(=O)O)[C@@H](OS(=O)(=O)O)[C@H](OS(=O)(=O)O)[C@H]3OS(=O)(=O)O)[C@H](OS(=O)(=O)O)[C@H]2OS(=O)(=O)O)cc1.[Na].[Na].[Na].[Na].[Na].[Na].[Na].[Na].[Na].[Na].[Na].[Na].[Na].[Na] [tetradecasodium N,N'-bis[4-[2,3,6-tri-O-sulfo-4-O-(2,3,4,6-tetra-O-sulfo-α-D-glucopyranosyl)-β-D-glucopyranosylthio]phenyl]tetradecanediamide] | 7 | 3.0 |  |  | 
9 | O=C(CCCC(=O)Nc1ccc(S[C@@H]2O[C@H](COS(=O)(=O)O)[C@@H](O[C@@H]3O[C@H](COS(=O)(=O)O)[C@@H](OS(=O)(=O)O)[C@H](OS(=O)(=O)O)[C@H]3OS(=O)(=O)O)[C@H](OS(=O)(=O)O)[C@H]2OS(=O)(=O)O)cc1)Nc1ccc(S[C@@H]2O[C@H](COS(=O)(=O)O)[C@@H](O[C@@H]3O[C@H](COS(=O)(=O)O)[C@@H](OS(=O)(=O)O)[C@H](OS(=O)(=O)O)[C@H]3OS(=O)(=O)O)[C@H](OS(=O)(=O)O)[C@H]2OS(=O)(=O)O)cc1.[Na].[Na].[Na].[Na].[Na].[Na].[Na].[Na].[Na].[Na].[Na].[Na].[Na].[Na] [tetradecasodium N,N'-bis[4-[2,3,6-tri-O-sulfo-4-O-(2,3,4,6-tetra-O-sulfo-β-D-glucopyranosyl)-β-D-glucopyranosylthio]phenyl]pentanediamide] | 12 | 2.0 |  |  | 

Reference: patent US4399126A, “Modulators of the complement system” (American Cyanamid Company, priority 1982, dated 1983)
